Experimental findings from US8921363B2, “Derivatives of 1 H-isoindol-3-amine, 1 H-iso-aza-indol-3amine, 3,4-dihydroisoquinolin-1-amine, and 1,4-dihydroisoquinolin-3-amine as beta-secretase inhibitors” (Amgen Inc., priority 2010, dated 2014) are described below.

In assay [1] the target is BACE1 (Homo sapiens, UniProt P56817). The assay can be described thus: In vitro enzymatic BACE FRET assay. It is filed as biochemical. As to the method: In Vitro Enzymatic BACE FRET (fluorescence resonance energy transfer) Assay (Enzyme Assay data in the Example Table I)
The assay buffer used in this screen is 0.05 M acetate, pH 4.2, 10% DMSO final, 100 uM genapol (which is a nonionic detergent, below its Critical Micelle Concentration). […] This assay is effectively started by the addition of FRET substrate (50 nM) and the combination is incubated for one hour. The FRET assay is terminated with by addition of Tris buffer, which raises the pH to neutrality, and the fluorescence is determined. The FRET substrate is a peptide with commercially available fluorophore and quencher, on opposite sides of the BACE cleavage site. Proteolytic cleavage of the FRET substrate releases quenching of fluorescence (excitation […] and […]).

Assay [2] deals with Aβ40 in conditioned medium of cells expressing amyloid precursor protein. The experiment in a line: In vitro BACE cell-based assay (HEK cell assay, Aβ40 sandwich ELISA). Conditions: Homo sapiens, HEK293; average IC50; Aβ40 after 24 h incubation. A general note: In an ELISA, binding on a coated surface is turned into a signal by an enzyme label.
In assay [3] the test system is amyloid beta peptide. The assay can be described thus: In vivo inhibition of beta-secretase (CSF and brain abeta reduction). The conditions noted are these: rat, PD dose of 10 mg/kg, after 4 hrs. The source says:
Several animal models, including mouse, rat, dog, and monkey, may be used to screen for inhibition of beta-secretase activity in vivo following administration of a test compound sample. Animals used in this invention can be wild type, transgenic, or gene knockout animals. For example, the Tg2576 mouse model, prepared and conducted as described in Hsiao et al., 1996, Science 274, 99-102, and other non-transgenic or gene knockout animals are useful to analyze in vivo inhibition of Amyloid beta peptide (Abeta) production in the presence of inhibitory test compounds. Generally, 2 to 18 month old Tg2576 mice, gene knockout mice or non-transgenic animals are administered test compounds formulated in vehicles, such as cyclodextran, phosphate buffers, hydroxypropyl methylcellulose or other suitable vehicles. One to twenty-four hours following the administration of compound, animals are sacrificed, and brains as well as cerebrospinal fluid (CSF) and plasma are removed for analysis of A-beta levels and drug or test compound concentrations (Dovey et al., 2001, Journal of Neurochemistry, 76,173-181) Beginning at time 0, animals are administered by oral gavage, or other means of delivery such as intravenous injection, an inhibitory test compound of up to 100 mg/kg in a standard, conventional formulation, such as 2% hydroxypropyl methylcellulose, 1% Tween80. A separate group of animals receive 2% hydroxypropyl methylcellulose, 1% Tween80 alone, containing no test compound, and serve as a vehicle-control group. At the end of the test period, animals are sacrificed and brain tissues, plasma or cerebrospinal fluid are collected. Brains are either homogenized in 10 volumes (w/v) of 0.2% diethylamine (DEA) in 50 mM NaCl (Best et al., 2005, Journal of Pharmacology and Experimental Therapeutics, 313, 902-908), or in 10 volumes of 0.5% TritonX-100 in Tris-buffered saline (pH at about 7.6). Homogenates are centrifuged at 355,000 g, 4° C. for 30 minutes. CSF or brain supernatants are then analyzed for the presence of A-beta peptide by specific sandwich ELISA assays based on ECL (Electrochemiluminescence) technology. For example, rat Abeta40 is measured using biotinylated-4G8 (Signet) as a capture antibody and Fab40 (an in-house antibody specific to the C-terminal of Abeta40) as a detection antibody. For example, 4 hours after administration of 30 mg/kg oral dose of the test compound in 2% hydroxypropyl methylcellulose, 1% Tween80 (pH2.2) to 200 g male Sprague Dawley rats, amyloid beta peptide levels are measured for reduction by X % and Y % in cerebrospinal fluid and brain, respectively, when compared to the levels measured in the vehicle-treated or control mice.
Actual vehicles used: Oral: 2% HPMC, 1% Tween80, pH 2.2 […]

Sequence of BACE1 (P56817 46-501): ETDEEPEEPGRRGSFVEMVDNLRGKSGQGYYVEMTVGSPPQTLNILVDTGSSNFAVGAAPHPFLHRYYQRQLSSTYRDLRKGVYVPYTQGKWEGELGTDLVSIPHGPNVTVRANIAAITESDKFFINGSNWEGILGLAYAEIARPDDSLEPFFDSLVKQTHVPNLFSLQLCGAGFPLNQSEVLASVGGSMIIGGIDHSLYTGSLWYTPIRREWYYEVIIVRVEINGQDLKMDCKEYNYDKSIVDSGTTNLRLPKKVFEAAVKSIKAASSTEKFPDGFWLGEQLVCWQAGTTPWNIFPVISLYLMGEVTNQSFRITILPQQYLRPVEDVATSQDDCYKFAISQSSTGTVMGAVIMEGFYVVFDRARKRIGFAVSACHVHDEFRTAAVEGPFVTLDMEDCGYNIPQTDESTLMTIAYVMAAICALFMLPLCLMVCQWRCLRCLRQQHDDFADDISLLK

As for `NC1=N[C@]2(c3cc(-c4cccnc4F)ccc3Oc3c2cc(C2=CCCOC2)nc3F)c2ccccc21` (single isomer, unassigned) [Example 7-B], in assay [1], the concentration for half-maximal inhibition (IC50) is 0.5 nM. The compound also displayed an IC50 in assay [2] of 5 nM. In assay [3], this compound displayed a CSF abeta reduction of 7% and a brain abeta reduction of 10%.
On to `NC1=NC2(c3cc(Br)ccc3Oc3c2cc(Cl)nc3F)c2cccnc21` (stereo not shown) [Example 17c, 7-bromo-3-chloro-1-fluorospiro[chromeno[2,3-c]pyridine-5,5′-pyrrolo[3,4-b]pyridin]-7′-amine], for which the IC50 in assay [1] and in assay [2] was greater than 10000 nM each time.
`NC1=NC2(c3cc(-c4cccnc4F)ccc3Oc3c2cc(Cl)nc3F)c2cccnc21` (stereo not shown) [Example 17d, 3-chloro-1-fluoro-7-(2-fluoropyridin-3-yl)spiro[chromeno[2,3-c]pyridine-5,5′-pyrrolo[3,4-b]pyridin]-7′-amine 2,2,2-trifluoroacetate]: the IC50 was 88 nM in assay [1] and 4370 nM in assay [2].
As to `NC1=N[C@@]2(c3cc(-c4cccnc4F)ccc3Oc3c2cc(Cl)nc3F)c2cccnc21` [Example 17d-1, (R)-3-chloro-1-fluoro-7-(2-fluoropyridin-3-yl)spiro[chromeno[2,3-c]pyridine-5,5′-pyrrolo[3,4-b]pyridin]-7′-amine], the IC50 in assay [1] and in assay [2] was greater than 10000 nM each time.
As for `NC1=N[C@]2(c3cc(-c4cccnc4F)ccc3Oc3c2cc(Cl)nc3F)c2cccnc21` [Example 17d-2, (S)-3-chloro-1-fluoro-7-(2-fluoropyridin-3-yl)spiro[chromeno[2,3-c]pyridine-5,5′-pyrrolo[3,4-b]pyridin]-7′-amine], the IC50 turned out to be 16 nM in assay [1] and 1570 nM in assay [2].
For `NC1=N[C@]2(c3cc(-c4cccnc4F)ccc3Oc3c2cc(-c2ccnc(F)c2)nc3F)c2cccnc21` [Example 17e, (S)-1-fluoro-7-(2-fluoropyridin-3-yl)-3-(2-fluoropyridin-4-yl)spiro[chromeno[2,3-c]pyridine-5,5′-pyrrolo[3,4-b]pyridin]-7′-amine], in assay [1], the IC50 came out at 0.7 nM. In assay [2], this compound returned an IC50 of 7 nM. In assay [3], this compound gave a CSF abeta reduction of 41% and a brain abeta reduction of 28%.
With `NC1=NC2(c3ccccc3O1)c1cc(-c3cncnc3)ccc1Oc1cnc(-c3ccnc(F)c3)cc12` (stereo not shown) [Example 20, 3′-(2-fluoropyridin-4-yl)-7′-(pyrimidin-5-yl)spiro[benzo[c][1,3]oxazine-4,5-chromeno[2,3-c]pyridin]-2-amine], the IC50 was determined as 2.7 nM in assay [1] and 106 nM in assay [2].
For `NC1=NC2(c3cc(-c4cccnc4F)ccc3Oc3cnc(-c4ccnc(F)c4)cc32)c2ncccc2O1` (stereo not shown) [Example 22, 7-(2-fluoropyridin-3-yl)-3-(2-fluoropyridin-4-yl)spiro[chromeno[2,3-c]pyridine-5,4′-pyrido[2,3-e][1,3]oxazin]-2′-amine] the same measures were 9.9 nM and 805 nM.
The like results for `NC1=NC2(c3ccccc3O1)c1cc(-c3cccnc3)ccc1Oc1cnc(-c3ccnc(F)c3)cc12` (stereo not shown) [Example 23, 3′-(2-fluoropyridin-4-yl)-7′-(pyridin-3-yl)spiro[benzo[e][1,3]oxazine-4,5′-chromeno[2,3-c]pyridin]-2-amine] were, in that order, 2.9 nM and 98 nM.

As usually defined, the IC50 is the midpoint of a concentration-inhibition curve.
